Data as given in ChEMBL document CHEMBL1201862, “PubChem BioAssay data set” (2004).
The source made the active and inactive calls.

Tests used:
Nonstructural protein 1 = Nonstructural protein 1 (Influenza A virus, UniProt Q194T2); type: functional, Influenza A virus (A/California/07/2009(H1N1))
[1] = target: T1, Replicative DNA helicase DnaB (Mycobacterium tuberculosis, UniProt P9WMR3); assay: DnaB intein splicing inhibitors, dose response, biochemical, cell-free fluorescence (AID 449749); type: functional
T1 sequence (P9WMR3 whole entry): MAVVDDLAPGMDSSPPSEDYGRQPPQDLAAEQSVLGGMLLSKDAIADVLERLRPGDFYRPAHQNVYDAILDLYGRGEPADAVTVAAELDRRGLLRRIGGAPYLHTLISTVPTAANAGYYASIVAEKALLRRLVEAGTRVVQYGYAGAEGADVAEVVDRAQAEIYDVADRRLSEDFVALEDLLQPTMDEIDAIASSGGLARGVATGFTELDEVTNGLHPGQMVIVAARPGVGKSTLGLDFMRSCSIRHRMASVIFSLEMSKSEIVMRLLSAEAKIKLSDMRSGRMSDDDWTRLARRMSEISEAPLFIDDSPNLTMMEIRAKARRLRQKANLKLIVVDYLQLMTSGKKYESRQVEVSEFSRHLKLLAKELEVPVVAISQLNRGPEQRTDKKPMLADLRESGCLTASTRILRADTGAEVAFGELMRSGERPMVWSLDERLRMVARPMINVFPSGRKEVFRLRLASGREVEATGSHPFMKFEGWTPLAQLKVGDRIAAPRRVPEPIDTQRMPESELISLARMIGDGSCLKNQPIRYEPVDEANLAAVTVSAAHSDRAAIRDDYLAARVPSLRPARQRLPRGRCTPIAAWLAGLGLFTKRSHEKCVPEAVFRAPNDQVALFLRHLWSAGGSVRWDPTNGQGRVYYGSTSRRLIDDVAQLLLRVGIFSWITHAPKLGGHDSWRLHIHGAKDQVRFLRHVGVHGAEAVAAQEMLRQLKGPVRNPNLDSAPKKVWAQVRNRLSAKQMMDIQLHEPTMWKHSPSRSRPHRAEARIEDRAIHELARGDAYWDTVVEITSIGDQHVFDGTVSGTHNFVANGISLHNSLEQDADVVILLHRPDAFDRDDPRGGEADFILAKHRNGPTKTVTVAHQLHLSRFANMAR

Protein RecA = target: T2, Protein RecA (Mycobacterium tuberculosis, UniProt P9WHJ3); assay: Fluorescence Cell-Free Homogeneous Dose Retest to Identify Inhibitors of RecA-Intein Splicing Activity. [Related pubchem assays (depositor defined):AID2097, AID2223, AID489010, AID492950]; type: functional
T2 sequence (P9WHJ3 whole entry): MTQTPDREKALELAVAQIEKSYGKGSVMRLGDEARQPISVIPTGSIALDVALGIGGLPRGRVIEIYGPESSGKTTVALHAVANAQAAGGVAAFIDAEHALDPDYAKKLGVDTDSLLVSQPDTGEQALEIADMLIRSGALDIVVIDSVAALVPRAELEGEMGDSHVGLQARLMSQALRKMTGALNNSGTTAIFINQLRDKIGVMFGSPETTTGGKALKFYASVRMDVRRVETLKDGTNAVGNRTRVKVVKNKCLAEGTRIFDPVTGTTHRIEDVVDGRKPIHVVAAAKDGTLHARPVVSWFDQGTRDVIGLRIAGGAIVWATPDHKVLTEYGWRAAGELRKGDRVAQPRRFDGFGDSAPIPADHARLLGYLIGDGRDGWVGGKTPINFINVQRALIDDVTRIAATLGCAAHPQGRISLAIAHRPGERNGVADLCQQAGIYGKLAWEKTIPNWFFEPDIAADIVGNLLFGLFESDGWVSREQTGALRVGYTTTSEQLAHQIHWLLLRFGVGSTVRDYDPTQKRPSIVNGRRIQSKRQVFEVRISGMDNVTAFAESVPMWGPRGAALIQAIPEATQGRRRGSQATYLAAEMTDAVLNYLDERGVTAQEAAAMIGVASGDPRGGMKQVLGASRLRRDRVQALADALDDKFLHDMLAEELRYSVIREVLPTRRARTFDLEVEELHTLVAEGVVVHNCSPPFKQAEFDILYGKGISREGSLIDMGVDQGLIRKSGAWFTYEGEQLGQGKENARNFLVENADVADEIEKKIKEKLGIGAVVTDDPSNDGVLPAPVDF

[2] = Luminescence Cell-Based Dose Response HTS to Identify Activators of Luciferase Translation or Activity in H4 […] Cells. [Related pubchem assays: 1829 (Project Summary), 1814 (Primary HTS)]; type: functional
[3] = target: T3, Rac GTPase-activating protein 1 (Homo sapiens, UniProt Q9H0H5); assay: blockers of MgcRacGAP-driven Rac1 GTP hydrolysis – biochemical, ADP Hunter fluorescence, primary and confirmatory, confirmation (AID 624330); type: functional
T3 sequence (Q9H0H5 whole entry): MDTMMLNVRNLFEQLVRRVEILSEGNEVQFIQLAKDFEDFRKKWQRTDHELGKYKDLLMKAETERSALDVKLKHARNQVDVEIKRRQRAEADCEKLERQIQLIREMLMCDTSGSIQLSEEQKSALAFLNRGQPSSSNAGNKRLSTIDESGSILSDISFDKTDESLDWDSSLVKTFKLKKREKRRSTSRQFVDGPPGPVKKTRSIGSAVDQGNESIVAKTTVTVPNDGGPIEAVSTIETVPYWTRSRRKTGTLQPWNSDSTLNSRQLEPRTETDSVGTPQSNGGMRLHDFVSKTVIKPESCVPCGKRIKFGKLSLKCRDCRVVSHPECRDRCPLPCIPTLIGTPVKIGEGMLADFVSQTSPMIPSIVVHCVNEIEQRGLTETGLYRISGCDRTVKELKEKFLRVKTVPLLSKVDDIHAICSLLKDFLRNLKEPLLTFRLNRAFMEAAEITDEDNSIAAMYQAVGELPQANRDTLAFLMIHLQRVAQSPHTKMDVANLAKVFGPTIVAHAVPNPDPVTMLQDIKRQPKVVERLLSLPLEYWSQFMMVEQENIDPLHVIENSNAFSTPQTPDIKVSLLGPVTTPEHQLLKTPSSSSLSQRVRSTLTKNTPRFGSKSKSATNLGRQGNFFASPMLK

H4 = assay: Luminescence Cell-Based Dose Response HTS to Identify Activators of 5'UTR Stem-Loop Driven Prion Protein mRNA Translation in H4 Neuroglioblastoma Cells. [Related pubchem assays: 1829 (Project Summary), 1814 (Primary HTS)]; type: functional; settings: Homo sapiens
[4] = intracellular Trypanosoma cruzi inhibitors in host cells – cell-based, plate reader, cherry-pick samples, set 3, dose response (AID 651818); type: functional;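 also: compounds incubated with infected cells for about four days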
[5] = Luminescence Cell-Based Dose Retest to Confirm Inhibitors of Cancer Stem Cells. [Related pubchem assays (depositor defined):AID2717, AID2721]; type: functional; settings: Homo sapiens
[6] = target: T4, RNA-binding protein pos-1 (Caenorhabditis elegans, UniProt G5EF15); assay: disruptors of C. elegans POS-1 RNA interaction – biochemical, fluorescence polarization, dose response (AID 1964);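 also: purified POS-1 fused to maltose binding protein made in E. coli; potency of compounds blocking POS-1 binding to fluorescent RNA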
T4 sequence (G5EF15 whole entry): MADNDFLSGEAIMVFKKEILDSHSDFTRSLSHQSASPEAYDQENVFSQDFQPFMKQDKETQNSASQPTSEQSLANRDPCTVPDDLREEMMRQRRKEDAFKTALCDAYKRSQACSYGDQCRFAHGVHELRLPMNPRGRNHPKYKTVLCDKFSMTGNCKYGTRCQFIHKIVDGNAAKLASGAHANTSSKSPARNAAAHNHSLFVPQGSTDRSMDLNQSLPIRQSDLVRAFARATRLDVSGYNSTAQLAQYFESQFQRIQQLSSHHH

[7] = target: T5, Zinc finger protein mex-5 (Caenorhabditis elegans, UniProt Q9XUB2); assay: potency of MEX-5 RNA-binding blockers – biochemical, C. elegans, fluorescence polarization, dose response (AID 1960)
T5 sequence (Q9XUB2 whole entry): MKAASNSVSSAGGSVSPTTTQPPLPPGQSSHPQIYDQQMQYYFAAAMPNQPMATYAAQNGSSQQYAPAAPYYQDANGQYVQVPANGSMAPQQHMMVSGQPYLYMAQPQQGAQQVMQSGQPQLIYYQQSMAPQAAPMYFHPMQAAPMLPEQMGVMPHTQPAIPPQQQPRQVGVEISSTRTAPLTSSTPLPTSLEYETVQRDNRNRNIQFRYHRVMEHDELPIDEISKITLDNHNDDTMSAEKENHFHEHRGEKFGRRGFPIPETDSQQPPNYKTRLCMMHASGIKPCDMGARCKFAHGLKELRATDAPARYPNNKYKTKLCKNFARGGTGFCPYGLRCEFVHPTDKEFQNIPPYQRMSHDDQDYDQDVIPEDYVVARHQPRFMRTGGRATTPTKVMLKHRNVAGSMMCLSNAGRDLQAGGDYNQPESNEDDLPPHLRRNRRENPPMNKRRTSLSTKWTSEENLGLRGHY

Vero = assay: cells; type: functional; settings: Chlorocebus sabaeus
[8] = target: Induced myeloid leukemia cell differentiation protein Mcl-1 (Homo sapiens, UniProt Q07820); type: functional
Cytochrome P450 2C19 = Cytochrome P450 2C19 (Homo sapiens, UniProt P33261); assay: Cytochrome panel assay with activity outcomes. Panel member name: p450-cyp2c19 Compounds with AC50 equal or less than 10 uM are considered active; type: functional; settings: read-out: AC50
[9] = Trypanosoma cruzi growth suppression in host cells – NIH3T3 host cells, beta-gal luminescence, confirmation (AID 2044); type: functional, cell-based;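 also: intracellular parasites grown in NIH/3T3 mouse fibroblasts as host cells; luminescent beta-galactosidase reporter signal from transgenic T. cruzi replicating inside host cells; inhibitors lower the luminescence signal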
[10] = NIH3T3 cell viability loss – ATP luminescence, mouse fibroblasts, counter-screen, dose response (AID 2010); type: functional, cell-based;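 also: cells exposed to compound for about 90 hours before reading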
INS1 = assay: INS-1E survival protection against cytokine death – cell-based, luminescence, retest, dose response (AID 449756); type: functional; settings: Rattus norvegicus;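 also: cell death triggered by IL-1 beta plus TNF-alpha plus IFN-gamma mixture; protective hits raise ATP signal compared with cytokine alone wells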

Chain of Induced myeloid leukemia cell differentiation protein Mcl-1 (Q07820 whole entry): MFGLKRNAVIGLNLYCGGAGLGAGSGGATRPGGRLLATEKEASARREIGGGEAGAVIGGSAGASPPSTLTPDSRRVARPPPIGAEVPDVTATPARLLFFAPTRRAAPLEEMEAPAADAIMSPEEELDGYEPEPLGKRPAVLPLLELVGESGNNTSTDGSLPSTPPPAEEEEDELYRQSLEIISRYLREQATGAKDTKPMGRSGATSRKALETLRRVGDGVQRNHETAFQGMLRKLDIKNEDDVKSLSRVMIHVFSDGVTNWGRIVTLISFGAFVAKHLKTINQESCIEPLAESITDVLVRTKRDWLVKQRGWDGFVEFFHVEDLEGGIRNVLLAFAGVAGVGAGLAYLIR
Chain of Nonstructural protein 1 (Q194T2 whole entry): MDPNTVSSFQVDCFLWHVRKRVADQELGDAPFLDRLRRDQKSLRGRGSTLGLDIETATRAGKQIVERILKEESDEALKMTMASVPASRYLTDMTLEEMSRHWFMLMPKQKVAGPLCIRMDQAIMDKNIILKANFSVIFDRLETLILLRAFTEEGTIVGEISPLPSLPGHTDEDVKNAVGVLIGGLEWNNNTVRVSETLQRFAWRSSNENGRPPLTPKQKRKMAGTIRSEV
Chain of Cytochrome P450 2C19 (P33261 whole entry): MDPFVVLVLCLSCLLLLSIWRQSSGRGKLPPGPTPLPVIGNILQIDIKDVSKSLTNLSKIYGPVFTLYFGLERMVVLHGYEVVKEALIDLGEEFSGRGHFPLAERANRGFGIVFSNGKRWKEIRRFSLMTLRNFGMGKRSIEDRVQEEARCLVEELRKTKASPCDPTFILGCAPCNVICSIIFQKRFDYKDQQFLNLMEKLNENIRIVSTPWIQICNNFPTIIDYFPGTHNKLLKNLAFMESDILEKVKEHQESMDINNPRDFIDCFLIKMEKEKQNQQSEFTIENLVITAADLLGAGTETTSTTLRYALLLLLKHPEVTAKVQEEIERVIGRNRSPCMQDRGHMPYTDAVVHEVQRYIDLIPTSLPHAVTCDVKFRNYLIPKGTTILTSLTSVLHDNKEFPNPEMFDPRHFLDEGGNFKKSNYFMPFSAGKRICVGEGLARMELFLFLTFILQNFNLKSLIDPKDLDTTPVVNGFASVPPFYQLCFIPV

Cc1ccc(-n2nc(C)c3c2OC(N)=C(C#N)C3c2ccc(C)o2)cc1 (stereo unspecified)
IC50 (Nonstructural protein 1): 24.9 µM (active) | AC50 [1]: 5.9 µM (active) | EC50 (Protein RecA): 25.7 µM (inconclusive)

CN(C)C=O.Oc1cccc2c(NC(S)=Nc3ccc(OC(F)F)cc3)cccc12
EC50 [2]: 12.8 µM (active) | IC50 [3]: 116 µM (active) | EC50 (H4): > 120 µM (not active)

C[C@H]1CN([C@@H](C)CO)C(=O)Cc2cc(NC(=O)Nc3ccc(C(F)(F)F)cc3)ccc2O[C@H]1CN(C)Cc1ccccc1
AC50 [4]: 3.08 µM (active)

C[C@@H]1CCCCO[C@H](CN(C)Cc2ccc(Cl)c(Cl)c2)[C@@H](C)CN([C@H](C)CO)C(=O)c2cc(NC(=O)Nc3ccc4c(c3)OCO4)ccc2O1
AC50 [4]: 4.02 µM (active)

O=C(NCC1CCCO1)C(=O)N/N=C/c1cc(Cl)ccc1O (stereo unspecified)
IC50 (Nonstructural protein 1): 7.81 µM (active)

Cc1noc(C)c1NC(=O)Nc1cccc2c1O[C@@H](CN(C)S(C)(=O)=O)[C@@H](C)CN([C@@H](C)CO)C2=O
AC50 [4]: 1.01 µM (active)

C[C@@H]1CN([C@@H](C)CO)C(=O)c2cccc(NC(=O)Nc3ccc(C(F)(F)F)cc3)c2O[C@@H]1CN(C)Cc1ccc(Oc2ccccc2)cc1
AC50 [4]: 6.09 µM (active)

Cc1cc([N+](=O)[O-])nn1CC(=O)N/N=C/c1ccc(O)cc1O
IC50 (Nonstructural protein 1): 14.2 µM (active) | AC50 [5]: 12.1 µM (active)

Cn1cc(/C=C2/SC(=O)N(c3ccccc3)C2=O)c2ccccc21
EC50 [2]: 50.8 µM (active) | EC50 (H4): 94.6 µM (active)

C[C@H](CO)N1C[C@H](C)[C@@H](CN(C)Cc2ccc(C(F)(F)F)cc2)Oc2c(NS(=O)(=O)c3ccccc3)cccc2C1=O
AC50 [4]: 8.8 µM (active)

C[C@H](CO)N1C[C@H](C)[C@@H](CN(C)C(=O)Nc2cccc3ccccc23)Oc2c(NC(=O)Nc3ccc4c(c3)OCO4)cccc2C1=O
AC50 [4]: 6.85 µM (active)

C[C@@H]1CCCCO[C@@H](CN(C)Cc2ccc(Cl)c(Cl)c2)[C@@H](C)CN([C@H](C)CO)C(=O)c2cc(NC(=O)Nc3ccc(F)cc3)ccc2O1
AC50 [4]: 2.38 µM (active)

COc1ccc(NC(=O)Nc2cccc3c2O[C@H](CN(C)Cc2ccc(C(=O)Nc4ccccc4N)cc2)[C@@H](C)CN([C@@H](C)CO)C3=O)cc1
AC50 [4]: 1.92 µM (active)

C[C@@H]1CN([C@H](C)CO)C(=O)Cc2cc(NS(=O)(=O)c3ccc(Cl)cc3)ccc2O[C@H]1CN(C)Cc1ccc2c(c1)OCO2
AC50 [4]: 3.53 µM (active)

CCOC(=O)c1cnc2nc(C)ccc2c1O
EC50 [6]: 13.7 µM (inconclusive) | EC50 [7]: 11.8 µM (active)

C[C@H](CO)N1C[C@H](C)[C@@H](CN(C)Cc2ccccc2)Oc2c(NC(=O)CCCCCC(=O)Nc3ccccc3N)cccc2C1=O
AC50 [4]: 3.24 µM (active)

CCN1CCN(Cc2ccc(NC(=O)c3cc(NC(=O)N4CCNC4=O)cc(OC)c3)cc2C(F)(F)F)CC1
CC50 (Vero): > 25 µM (active)

CC(=O)c1ccc(-n2c(CCC(=O)O)ccc2-c2cccs2)cc1
IC50 [8]: 9.23 µM (not active) | AC50 (Cytochrome P450 2C19): 11.2 µM (inconclusive)

COc1ccc(C(=O)C[n+]2ccc(-c3nnc4n3CCCCC4)cc2)cc1
IC50 [8]: > 54 µM (active)

Cc1[nH]c2ccccc2c1CN1CCC(Cc2ccccc2)CC1
EC50 [9]: 212 nM (active) | EC50 [10]: 10.9 µM (active) | AC50 (INS1): 3.46 µM (active) | CC50 (Vero): > 25 µM (active)

CC(C)C(=O)OCC(=O)Nc1ccc(N=Nc2ccccc2)cc1
IC50 (Nonstructural protein 1): > 100 µM (active)

CCOC(=O)c1c(N/C=C2/C(=O)NC(=O)N(c3cccc(C)c3)C2=O)sc2c1CCCC2
EC50 [6]: > 300 µM (not active) | EC50 [7]: > 300 µM (not active)

O=C(COC(=O)C1CCCCC1)Nc1ccc(N2CCCCC2)cc1
IC50 (Nonstructural protein 1): 34.6 µM (active)

O=C(NN1C(=O)c2ccccc2NC1c1ccccn1)c1ccc(Br)cc1 (stereo unspecified)
EC50 [6]: 64.9 µM (active) | EC50 [7]: 15.5 µM (active)

CCCN1C(=O)S/C(=C/c2ccc(N3CCOCC3)o2)C1=O
CC50 (Vero): > 25 µM (active)

O=C(CCSc1ccc(Cl)cc1)N1CCCCCC1
EC50 [2]: > 120 µM (not active) | EC50 (H4): 21.6 µM (active)

C/C(=C\c1ccco1)C1Nc2cccc3cccc(c23)N1
IC50 [8]: 8.61 µM (active)
